The source of these data is PMC9535710 (ACS Omega, 2022).

Usually IC50 stands for the concentration at which inhibition is half-maximal. Usually inhibition stands for the relative decrease from the control value, in per cent. A lower inhibition goes with a weak effect.

The test system of data set [1] is SKLU-1 (lung). The data set is described as follows: SRB cytotoxicity, SKLU-1 lung cells. It counts as cell-based, human. The settings on record: Homo sapiens, SK-LU-1, read-out: IC50 SKLU-1.
Data set [2] concerns K562 (leukemia). The data set is described as follows: SRB cytotoxicity, K562 leukemia cells. The settings on record: Homo sapiens, K562, read-out: IC50 K562. It counts as cell-based, human.
Data set [3] has as its system HCT-15 (colon). As to the kind of experiment: SRB cytotoxicity, HCT-15 colon cells. It counts as cell-based, human. To be noted: Homo sapiens, HCT-15, read-out: IC50 HCT-15.
Data set [4] has as its system U251 (glioblastoma). The data set is described as follows: SRB cytotoxicity, U251 glioblastoma cells. The settings on record: Homo sapiens, U-251, read-out: IC50 U251. It counts as cell-based, human.
The nature of data set [5]: SRB cytotoxicity, SKLU-1 lung cells. The data set is classed as cell-based, human. To be noted: human, SKLU-1 lung tumor cells.
Data set [6] in a line: SRB cytotoxicity, MCF-7 breast cells. The settings on record: human, MCF-7 breast tumor cells. It counts as cell-based.
A short description of data set [7]: SRB cytotoxicity, K562 leukemia cells. It counts as cell-based, human. To be noted: human, K562 leukemia cells.
A short description of data set [8]: SRB cytotoxicity, HCT-15 colon cells. The data set is classed as cell-based, human. To be noted: human, HCT-15 colon tumor cells.
The nature of data set [9]: SRB cytotoxicity, PC-3 prostate cells. It counts as cell-based. The settings on record: human, PC-3 prostate tumor cells.
Data set [10] is described as follows: SRB cytotoxicity, U251 glioblastoma cells. The data set is classed as cell-based, human. To be noted: human, U251 glioblastoma cells.

Take `COc1cc([C@@H]2c3cc4c(cc3[C@@H](O[C@@H]3O[C@@H]5CO[C@@H](C)O[C@H]5[C@H](O)[C@H]3O)[C@H]3COC(=O)[C@H]23)OCO4)cc(OC)c1O` [etoposide, reference compound]: the IC50 in data set [1] was 2600 ± 300 nM; in [2], 2200 ± 700 nM; in data set [3], 4.8 ± 0.5 µM; in data set [4], 2400 ± 200 nM.

For `CC(C)=CCC[C@@H](C)[C@@H]1CC[C@]2(C)C3=C(CC[C@@]12C)[C@@]1(C)CC[C@H](O)C(C)(C)[C@@H]1CC3` [euphol (2), eupha-8,24-dien-3β-ol], the inhibition at 50 μM in data set [5] is 4.9%; in data set [6], 36.6%; in data set [7], 26.9%; in [8] it was 2.18%.

Consider `C=C(C)[C@@H]1CC[C@]2(C)CC[C@]3(C)[C@H](CC[C@@H]4[C@@]5(C)CC[C@H](O)C(C)(C)[C@@H]5CC[C@]43C)[C@@H]12` [lupeol (5), lupeol], for which the inhibition at 50 μM was 13% in data set [5]; 22.3% in data set [6]; 48.8% in [7]; 50.7% in data set [9]; 10.4% in [8]; 27.3% in data set [10].
